According to publication PMC3992122 (Molecular cancer therapeutics, 2012):

Assays:
[1] = tested on: imatinib- and sunitinib-resistant GISTs; conditions: phase II study; cited from earlier work
[2] = tested on: imatinib- or imatinib/sunitinib-resistant GIST; conditions: sorafenib 400 mg twice daily, cited from earlier work
drug-resistant GIST = conditions: third-line treatment, cited from earlier work
[3] = tested on: GIST after imatinib, sunitinib and nilotinib therapy; conditions: fourth-line, 400 mg twice daily, cited from earlier work
[4] = target: GIST48 cells (KIT V560D + D820A) (Homo sapiens, UniProt P10721, D820A/V560D); conditions: doses as low as 100 nmol/L
Sequence of GIST48 cells (KIT V560D + D820A) (P10721 26-976 V560D/D820A): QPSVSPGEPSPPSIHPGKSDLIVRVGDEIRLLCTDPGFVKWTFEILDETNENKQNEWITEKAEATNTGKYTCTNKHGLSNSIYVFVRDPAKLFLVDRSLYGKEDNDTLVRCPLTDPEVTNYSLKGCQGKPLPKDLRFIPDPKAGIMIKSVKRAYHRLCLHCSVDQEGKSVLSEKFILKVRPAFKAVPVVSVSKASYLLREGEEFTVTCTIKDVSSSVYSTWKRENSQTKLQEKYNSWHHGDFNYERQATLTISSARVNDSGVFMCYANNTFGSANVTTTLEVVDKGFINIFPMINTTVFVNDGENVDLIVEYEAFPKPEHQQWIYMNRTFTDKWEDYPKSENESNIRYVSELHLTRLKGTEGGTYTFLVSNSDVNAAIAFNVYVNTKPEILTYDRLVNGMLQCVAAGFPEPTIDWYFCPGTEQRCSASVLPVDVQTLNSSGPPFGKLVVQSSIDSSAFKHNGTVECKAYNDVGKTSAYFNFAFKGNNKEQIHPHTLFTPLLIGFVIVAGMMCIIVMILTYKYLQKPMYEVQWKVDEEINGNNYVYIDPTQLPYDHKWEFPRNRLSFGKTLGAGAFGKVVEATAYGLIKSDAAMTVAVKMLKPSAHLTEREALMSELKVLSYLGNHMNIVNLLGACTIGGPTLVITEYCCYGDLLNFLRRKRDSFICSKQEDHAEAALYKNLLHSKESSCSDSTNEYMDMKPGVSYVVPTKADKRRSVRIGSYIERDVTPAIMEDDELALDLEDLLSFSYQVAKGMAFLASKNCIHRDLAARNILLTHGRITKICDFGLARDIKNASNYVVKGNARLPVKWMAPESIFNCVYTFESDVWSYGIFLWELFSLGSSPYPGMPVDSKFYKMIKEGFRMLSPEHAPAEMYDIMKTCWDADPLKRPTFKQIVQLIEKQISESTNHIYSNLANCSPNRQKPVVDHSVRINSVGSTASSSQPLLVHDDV

GIST patients = GIST patients treated with sorafenib; cited from earlier work
imatinib-resistant GIST = conditions: second-line setting; cited from earlier work

Question: Which results are given for `CNC(=O)c1cc(Oc2ccc(NC(=O)Nc3ccc(Cl)c(C(F)(F)F)c3)c(F)c2)ccn1` [Regorafenib]?
Answer: clinical benefit rate [1]: 55%; median PFS [1]: 10 months

Question: Which disease control rate ([2]; 38 patients) does the source give for `CNC(=O)c1cc(Oc2ccc(NC(=O)Nc3ccc(Cl)c(C(F)(F)F)c3)cc2)ccn1` [Sorafenib] here?
Answer: Its disease control rate is 68%.

Question: What about the “hand-foot syndrome (grade 3-4 toxicity)” value [2] of the same compound?
Answer: The value was 45%.

Question: And the “median OS” value [2]?
Answer: Its value is 11.6 months.

Question: What about the “patients requiring at least one dose reduction” value [2] of the same compound?
Answer: The value was 63%.

Question: And the “rate of grade 3-4 toxicity” value [2]?
Answer: Its value is “greater than 50%”.

Question: And the “median OS” value (drug-resistant GIST; median follow-up of 7.5 months)?
Answer: The value was “had not been reached”.

Question: And the “median PFS” value (drug-resistant GIST)?
Answer: The value was 4.6 months.

Question: And the “overall disease control rate” value (drug-resistant GIST)?
Answer: The value was 65%.

Question: And the “overall tumor control rate” value ([3]; 32 patients)?
Answer: The value was 63%.

Question: What about the “median PFS” value [3] of the same compound?
Answer: The value was 4.6 months.

Question: And the “inhibition of KIT phosphorylation” value [4]?
Answer: The value was 85%.

Question: What about the “grade 3-4 anemia” value (GIST patients) of the same compound?
Answer: The value was 7%.

Question: What about the “grade 3-4 elevated liver enzymes or bilirubin” value (GIST patients) of the same compound?
Answer: Its value is 7%.

Question: What about the “grade 3-4 fatigue” value (GIST patients) of the same compound?
Answer: Its value is 5%.

Question: And the “grade 3-4 hand-foot skin reaction” value (GIST patients)?
Answer: The value was 16%.

Question: And the “grade 3-4 hypertension” value (GIST patients)?
Answer: Its value is 5%.

Question: With `CCN(CC)CCNC(=O)c1c(C)[nH]c(/C=C2\C(=O)Nc3ccc(F)cc32)c1C` [Sunitinib] as the compound, how does the disease control rate (imatinib-resistant GIST) read?
Answer: Its disease control rate is 65%.

Question: What about the “median OS” value (imatinib-resistant GIST) of the same compound?
Answer: Its value is 17.2 months.
